This is an account of results in patent US20120035244A1, “PARP1 TARGETED THERAPY” (THE REGENTS OF THE UNIVERSITY OF MICHIGAN, priority 2010, published 2012).

The subject of data set [1] is VCaP cells. The experiment in a line: Basement membrane matrix invasion assay, VCaP cells. Conditions: P<0.01 for DNA-PKcs siRNA or NU7026>10 μM; P<0.05 for all PARP1 siRNA, NU1025 or Olaparib treatments. Type of data set: cell-based, human. As to the method: For invasion assays, the prostate cell lines RWPE-1 and VCaP were transfected with siRNA or negative controls as indicated. NU7026 (Sigma) and NU1025 (Calbiochem) were dissolved in DMSO and stored at −20° C. in the dark. Forty-eight hours post-transfection/transduction, cells were seeded onto the basement membrane matrix (EC matrix, Chemicon, Temecula, Calif.) in the chamber insert with […] pores of a 24-well culture plate in serum free media. Cells were attracted to the lower chamber by the addition of complete media as a chemoattractant. After 48 hours incubation at 37° C. with 5% CO2, the non-invading cells and EC matrix were gently removed with a cotton swab. Invasive cells, which were located on the lower side of the membrane, were stained with crystal violet, air dried and photographed. To quantify the relative number of invaded cells, colorimetric assays were performed by treating the inserts with 150 μl of 10% acetic acid (v/v) and measuring absorbance of each condition at 560 nm using a spectrophotometer (GE Healthcare).

The subject of data set [2] is PC3 cells expressing BRCA2 shRNA. Nature of the data set: γ-H2A.X immunofluorescence, PC3 cells expressing BRCA2 shRNA. The format is cell-based, human. Conditions: BRCA2 depleted PC3 cells, Olaparib. As to the method: (§1) Cells were seeded at 25,000 cells/mL in 4-well chamber slide 24 hours prior to the addition of siRNA or drug as indicated. Merbarone (Sigma) was dissolved in DMSO and stored at 4° C. Cells were then washed once in PBS, fixed for 15 minutes in 100% methanol, washed in PBS, permeabilized for 5 minutes in PBS containing 0.2% Triton-X, washed twice in PBS, blocked for 30 minutes in PBS containing 0.5% donkey serum (Sigma, St. Louis, Mo.), held for 45 minutes in PBS containing 0.5% donkey serum and primary antibody: anti-γ-H2A.X mouse monoclonal (Millipore Cat #05-636), anti-γ-H2A.X rabbit polyclonal (Cell Signaling, Cat #9719, Danvers, Mass.), and anti-53BP1 rabbit polyclonal (Cell Signaling, Cat #4937, Danvers, Mass.) washed 3 times with PBS, held for 30 minutes in PBS containing 0.5% donkey serum and secondary antibody: Alexa Fluor 488-anti-Mouse (Invitrogen) or Alexa Fluor 594-anti-Rabbit (Invitrogen). Cells were then stained with DAPI for 5 minutes and slides were mounted 12 hours prior to analysis using Vectashield (Vector laboratories, Burlingame, Calif.). Images were taken using 100× oil lens on an Olympus Confocal microscope at the University of Michigan microscopy imaging lab.

Data set [3] deals with VCaP cells. The experiment in a line: γ-H2A.X immunofluorescence, VCaP cells. Type of data set: cell-based, human. Conditions: Olaparib for 48 hours. As to the method:
as §1

Another data set deals with 22RV1 xenografts. Nature of the data set: 22RV1 mouse xenograft model. Conditions: 22RV1 (ETS negative), Olaparib. Type of data set: in vivo, mice. The source says: Olaparib was obtained from Axon Medchem (Groningen, The Netherlands).
In data set [4] the test system is DU145 model overexpressing T2:ERG. The experiment in a line: γH2A.X foci after radiation (DNA double strand break repair), isogenic DU145 model. Conditions: DU145, pre-treated with 10 μM Olaparib, then radiation. The format is cell-based. As to the method:
The effect of ETS overexpression on repair of DNA double strand breaks was assayed. Isogenic PC3 and DU145 models, respectively, overexpressing either T2:ERG or ERG with a deleted ETS domain were pre-treated with or without 10 μM Olaparib and then treated with radiation. Immunofluorescence staining of γH2A.X foci was used to assess total levels of DNA damage and repair rate. The number of cells with >10 γH2A.X foci were quantified at each time point as indicated. Representative photomicrographs were taken 24 hours after treatment using an Olympus confocal microscope with a 100× Oil objective. All experiments were run in triplicate. Error bars are standard error of the mean.

For data set [5] the following is noted: Fong et al., N Engl J Med 361, 123-134 (2009); cited from earlier work.
The test system of data set [6] is ERG-target gene expression. The experiment in a line: qPCR of ERG-target genes in staged PC3-ERG tumors. Type of data set: in vivo, mice. Conditions: 4 hours, 40 mg/kg Olaparib or 25 mg/kg NU7026.
Data set [7] concerns ERG target genes in VCaP cells. The experiment in a line: qPCR analysis of ERG-target genes in VCaP cells. The format is cell-based, human. Conditions: siRNA or drug for 48 hours. As to the method: Total RNA was isolated from VCAP, RWPE or PrEC cells that were transfected with siRNA as indicated (Qiagen). Quantitative PCR (QPCR) was performed using SYBR Green dye on an Applied Biosystems 7300 Real Time PCR system (Applied Biosystems, Foster City, Calif.) as described (Tomlins, S. A., et al. Science (New York, N.Y. 310, 644-648 (2005)). Briefly, 1 μg of total RNA was reverse transcribed into cDNA using SuperScript 111 (Invitrogen, Carlsbad, Calif.) in the presence of random primers (Invitrogen). All reactions were performed in triplicate with SYBR Green Master Mix (Applied Biosystems) plus 25 ng of both the forward and reverse primer according to the manufacturer's recommended thermocycling conditions, and then subjected to melt curve analysis. […] The relative quantity of the target gene was completed for each sample using the ΔΔCt method by the comparing mean Ct of the gene to the average Ct of the housekeeping gene, β-Actin8. […] The primer sequences for the transcript analyzed were either previously described (Tomlins et al., 2008, supra) or are provided in Table 4.
Total RNA was isolated from VCAP, RWPE or PrEC cells that were transfected with siRNA as indicated (Qiagen). […] The relative quantity of the target gene was completed for each sample using the ΔΔCt method by the comparing mean Ct of the gene to the average Ct of the housekeeping gene, β-Actin8. […]

“Also recorded” adds a separate entry of the source.

On to `O=C(c1cc(Cc2n[nH]c(=O)c3ccccc23)ccc1F)N1CCN(C(=O)C2CC2)CC1` [Olaparib, 4-[3-(4-Cyclopropanecarbonylpiperazine-1-carbonyl)-4-fluorobenzyl]-2H-phthalazin-1-one], for which the VCaP cell invasion result in the data set on VCaP cells [1] was “significant reduction; also recorded: blocks VCaP cell invasion”. In addition, the γ-H2A.X staining entry in data set [2] was “similarly dramatic increase in γ-H2A.X staining”. The γ-H2A.X foci entry in the data set with VCaP cells [3] is recorded as “very high level of γ-H2A.X foci”. Further, the xenograft growth result with 22RV1 xenografts was “not responsive; also recorded: did not inhibit the growth”. Moreover, in data set [4], the “ERG-enhanced DNA DSB damage repair (γH2A.X foci)” value was “blocked; also recorded: reversed by PARP inhibition”. Besides, in data set [5], the “tolerability in cancer patients” value was “well tolerated in cancer patients with a minimal side effect profile; also recorded: well tolerated at doses capable of inhibiting PARP activity”. For the same compound, the “ERG-target gene expression in tumors (qPCR)” value in data set [6] is “loss of ERG-target gene expression”. Moreover, the “expression of the ERG target genes (qPCR)” value in data set [7] was “confirmed gene expression changes as predicted by the gene expression arrays; also recorded: altered expression of the ERG target genes”.
